Structures can show the parent of a compound that is named as a salt.
Tested on: HIV/EBOV pseudovirion
Format: cell-based, Ebolavirus Zaire

| SMILES | Antiviral effect by time of compound addition |
| --- | --- |
| CN1[C@@H]2CC[C@H]1C[C@@H](OC(c1ccccc1)c1ccccc1)C2 [benztropine, Benztropine mesylate] | started to lose its inhibitory effect when it was added at 2 h post entry and beyond |
| Cc1cn([C@H]2C[C@H](N=[N+]=[N-])[C@@H](CO)O2)c(=O)[nH]c1=O [AZT, Azidothymidine] | still effective even when it was introduced at a very late time points (>8 h) |
